Patent publication US7531506B2, “Process for producing trunkamide a compounds” (Pharma Mar, S.A., priority 2001, dated 2009)
*1 amine or outer side, *2 acyl side, *3 side chain or, on linkers, in order; H or OH if unused. Where a SMILES comes first, the peptide text is derived from it. [ ]: non-standard residue; d: D form. The star is where a group is joined. X1 = O=C([C@@H]1CSC([C@@H](Cc2ccccc2)N[*:1])=N1)[*:2]; X2 = C=CC(C)(C)O[C@H](C)C(N[*:1])C(=O)[*:2]; Allyl(1,1-Me2) = C=CC(C)(C)*

Tests used:
Assay type in all cases: cell-based
[1] = system: MEL-28 human melanoma; test: Cytotoxicity, MEL28 cells; conditions: MEL-28 human melanoma cells; read-out: Cytoxicity IC50 MEL28
Excerpt: (§1) Cytoxicity of trunkamide A and derivatives IC50 (molar).
(§2) Methodology: after Berjeron et al, Biochem and Bioph Res. Comm., 1984, 121, 3,848854 388=Murine lymphoma. A549=lung carcinoma. . HT-29=human colon carcinoma MEL-28=human melanoma. DU145=human prostate carcinoma.

[2] = system: HT-29 human colon carcinoma; test: Cytotoxicity, HT29 cells; conditions: HT-29 human colon carcinoma cells; read-out: Cytoxicity IC50 HT29
Excerpt: as §1, §2

[3] = system: A549 human lung carcinoma; test: Cytotoxicity, A549 cells; conditions: read-out: Cytoxicity IC50 A549
Excerpt: as §1, §2

[4] = system: P388 murine lymphoma; test: Cytotoxicity, P388 cells; conditions: read-out: Cytoxicity IC50 P388
Excerpt: as §1, §2

[5] = system: DU145 human prostate carcinoma; test: Cytotoxicity, DU145 cells; conditions: read-out: Cytoxicity IC50 DU145
Excerpt: as §1, §2

| Compound | IC50 [1] | IC50 [2] | IC50 [3] | IC50 [4] | IC50 [5] |
| --- | --- | --- | --- | --- | --- |
| C=CC(C)(C)OC[C@@H]1NC(=O)C([C@@H](C)OC(C)(C)C=C)NC(=O)[C@@H]2CSC(=N2)[C@@H](Cc2ccccc2)NC(=O)[C@@H]2CCCN2C(=O)[C@H](C)NC(=O)[C@H]([C@@H](C)CC)NC1=O (stereo partly drawn) [Compound 9, Cyclo[D-Phe-Tzn-Thr(rPr)-Ser(rPr)-Ile-Ala-Pro]] (cyclo(AP[X1][X2]S(Allyl(1,1-Me2))I)) | 12000 nM | 1200 nM | 1200 nM | 1200 nM | 1200 nM |
| Cyclo [Compound 10, Cyclo [L-Phe-Tzn-Thr(rPr)-Ser(rPr)-Ile-Ala-Pro]] | 1200 nM | 1200 nM | 1200 nM | 1200 nM | 1200 nM |
| Cyclo [Compound 11, Cyclo [L-Phe-Tzn-Thr (tBu)-Ser(tBu)-Ile-Ala-Pro]] | > 6200 nM | > 6200 nM | > 6200 nM | > 6200 nM | > 6200 nM |
| Cyclo [Compound 12, Cyclo [L-Phe-Oxa-Thr(tBu)-Ser(tBu)-Ile-Ala-Pro]] | > 6100 nM | 3100 nM | 3100 nM | 3100 nM | > 6100 nM |
